# Reference: US7622500B2, “Antiparasitic agents” (Pfizer Limited, priority 2007, dated 2009)
# System: Haemonchus contortus L3
# Assay: Haemonchus contortus L3 (HcL3) in vitro test
# Format: cell-based
# Conditions: minimum effective dose, exsheathed L3 larvae, 37° C., observed 2 hrs to 4 days, dose responses 100-0.1 μg/ml, n=2, read-out: H.c. (L3) MED
# Description: The Haemonchus contortus L3 (HcL3) test is used to measure the biological activities of the compounds claimed. The assay involves in vitro testing against H. contortus conducted according to the following general procedure.
# HcL3 larvae were collected from infected sheep and, after cleaning, stored in water at 12° C. for up to one month. Viable infective larvae were exsheathed using 10% hypochlorite in Glucose Tyrodes balanced salt solution containing antibiotics and resuspended in basal medium (20 g/l bacto-tryptone, 5 g/l yeast extract, 57 g/l glucose, 0.8 g/l di-Potassium hydrogen orthophosphate, 0.8 g/l potassium dihydrogen orthophosphate and […] Hepes with antibiotics). 95 μl worm suspension was added to each well of a 96 well plate.
# Test compounds were dissolved in dimethylsulfoxide to give a working stock solution of 20 mg/ml. The stock concentration was diluted 1:10 in Basal media to give 2.0 mg/ml (10% DMSO). 5 μl of the stock compound solution was added to the worm suspension to give a final concentration of 100 μg/ml. Plates were sealed with pressure sensitive film and incubated at 37° C. Observations were made 2 hrs, 24 hrs, 48 hrs, 72 hrs and 4 days post-treatment using an inverted microscope. Activity was recorded if a significant proportion of the worms were dead or adversely affected by the compound when compared to the control well containing 1% DMSO. Compounds were initially tested at 100 μg/ml, wherefrom relevant dose responses (100, 30, 10, 3, 1, 0.3, 0.1 μg/ml) were conducted in duplicate experiments to generate n=2. Data was recorded as minimum effective dose.
row,SMILES,minimal effective concentration [µg/mL]
1,"CC(C#N)(NC(=O)c1ccc(OC(F)(F)F)cc1)C1Cc2cc(C#N)ccc2O1 (centres unmarked) [Example 1a, N-[1-Cyano-1-(5-cyano-2,3-dihydro-1-benzofuran-2-yl)ethyl]-4-(trifluoromethoxy)benzamide]",3
2,"CC(C#N)(NC(=O)c1ccc(SC(F)(F)F)cc1)C1Cc2cc(C#N)ccc2O1 (centres unmarked) [Example 2, N-[1-Cyano-1-(5-cyano-2,3-dihydro-1-benzofuran-2-yl)ethyl]-4-[(trifluoromethyl)thio]benzamide]",3
3,"CC(C#N)(NC(=O)c1ccc(OC(F)(F)F)cc1)C1Cc2ccccc2O1 (centres unmarked) [Example 3, N-[1-Cyano-1-(2,3-dihydro-1-benzofuran-2-yl)ethyl]-4-(trifluoromethoxy)benzamide]",30
4,"CC(C#N)(NC(=O)c1ccc(C(F)(F)F)cc1)C1Cc2cc(Cl)ccc2O1 (centres unmarked) [Example 5, N-[1-(5-Chloro-2,3-dihydro-1-benzofuran-2-yl)-1-cyanoethyl]-4-(trifluoromethyl)benzamide]",30
5,"CC(C#N)(NC(=O)c1ccc(OC(F)(F)F)cc1)C1Cc2cccc(C#N)c2O1 (centres unmarked) [Example 6, N-[1-Cyano-1-(7-cyano-2,3-dihydro-1-benzofuran-2-yl)ethyl]-4-(trifluoromethoxy)benzamide]",10
6,"CC(C#N)(NC(=O)c1ccc(SC(F)(F)F)cc1)C1Cc2cccc(C#N)c2O1 (centres unmarked) [Example 7, N-[1-Cyano-1-(7-cyano-2,3-dihydro-1-benzofuran-2-yl)ethyl]-4-[(trifluoromethyl)thio]benzamide]",10
7,"CC(C#N)(NC(=O)c1ccc(OC(F)(F)F)cc1)C1Cc2cc(C#N)cc(Cl)c2O1 (centres unmarked) [Example 8, N-[1-(7-Chloro-5-cyano-2,3-dihydro-1-benzofuran-2-yl)-1-cyanoethyl]-4-(trifluoromethoxy)benzamide]",< 1
8,"CC(C#N)(NC(=O)c1ccc(S(F)(F)(F)(F)F)cc1)C1Cc2cc(C#N)cc(Cl)c2O1 (centres unmarked) [Example 9, N-[1-(7-Chloro-5-cyano-2,3-dihydro-1-benzofuran-2-yl)-1-cyanoethyl]-4-(pentafluorothio)benzamide]",< 1
